Measured values from US6566355B1 (Hoffmann-La Roche Inc., priority 1991, dated 2003).
pIC50: −log10 of the molar value. Structures can show the parent of a compound that is named as a salt. Where two headings read alike, the source gives them in different places.

Key:
Citrobacter freundii = experiment: MIC in vitro of a 1:4 combination of ceftriaxone with a compound of formula I (test D); format: cell-based; details: 1:4 combination of ceftriaxone with the compound
Method: D. Determination of the β-lactamase-inhibiting activity by combination of a compound of general formula I with ceftriaxone
The minimum inhibitory concentration in vitro (MIC in μg/ml) of a 1:4 combination of ceftriaxone with a compound of formula I against Citrobacter freundii is measured and compiled in Table 2 hereinafter.

β-lactamase = target: T1, β-lactamase (Citrobacter freundii, UniProt P05193); experiment: biochemical; details: for IC50: isolated β-lactamase of Citrobacter freundii, substrate nitrocefin 0.1 mM, 15 minutes pre-incubation with inhibitor, 37° C., pH 7.0
T1 construct: Various β-lactamases can be isolated from penicillin- or cephalosporin-resistant bacterial strains such as; endogenous in cells; host or cells: Citrobacter freundii 1203 (enzyme purified from the crude cell extract, after ampicillin induction when necessary)
How it was run: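 β-lactamase from C. freundii 1203 crude extract (French press, 20 mM Tris-HCl pH 7.0) assayed with 0.1 mM nitrocefin in 50 mM phosphate pH 7.0 at 37° C, enzyme set to ΔA/min about 0.1, read at 482 nm. IC50 is inhibitor concentration giving 50% inhibition of nitrocefin cleavage, determined graphically.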

T1 sequence (P05193 21-381): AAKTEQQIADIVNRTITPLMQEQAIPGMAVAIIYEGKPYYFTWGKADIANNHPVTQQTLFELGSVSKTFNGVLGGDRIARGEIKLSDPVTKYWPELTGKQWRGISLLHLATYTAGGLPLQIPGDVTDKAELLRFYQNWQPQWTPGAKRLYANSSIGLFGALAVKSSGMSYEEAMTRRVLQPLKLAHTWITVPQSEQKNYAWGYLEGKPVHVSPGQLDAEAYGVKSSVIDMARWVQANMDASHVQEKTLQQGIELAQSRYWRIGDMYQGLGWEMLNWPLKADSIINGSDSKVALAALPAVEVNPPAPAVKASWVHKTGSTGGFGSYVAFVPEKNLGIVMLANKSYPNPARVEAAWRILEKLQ

Row | Compound | MIC (Citrobacter freundii) [µg/mL] | IC50 (β-lactamase; read-out: IC 50 nM) [nM] | IC50 (β-lactamase; IC 50 nM) [nM] | pIC50 (β-lactamase)
1 | COC1=C(C(=O)O)N2C(=O)C3C2C(C1)CN3C(=O)OC(C)(C)C [Example 7, (1aS,3aR,6bR)-1,1a,3a,6b-Tetrahydro-5-methoxy-1-oxo-2,6a-diazacyclobuta[cd]indene-2,6(3H,4H)-dicarboxylic acid 2-t-butyl monoester] | 4 | 505 |  | 
2 | N[C@@H](C(=O)N1CC[C@@H]2[C@H]1C(=O)N2S(=O)(=O)O)c1ccc(O)c(O)c1.[Na] [Example 21, (1S,5R)-2-[(R,S)-Amino-(3,4-dihydroxyphenyl)acetyl]-7-oxo-2,6-diazabicyclo[3.2.0]heptane-6-sulphonic acid sodium salt] | 4 | 695 |  | 
3 | O=C(OCc1cccs1)N1CC[C@@H]2[C@H]1C(=O)N2S(=O)(=O)[O-].[Na+] [17(n), (1S,5R)-7-Oxo-2-(thien-2-yl-methoxycarbonyl)-2,6-diazabicyclo[3.2.0]heptane-6-sulphonic acid sodium salt] | 16 |  | 272 | 
4 | O=C(CS(=O)(=O)c1ccc(O)c(O)c1)N1CC[C@@H]2[C@H]1C(=O)N2S(=O)(=O)O [Example 20, (1S,5R)-2-[[(3,4-Dihydroxyphenyl)sulphonyl]acetyl]-7-oxo-2,6-diazabicyclo[3.2.0]heptane-6-sulphonic acid sodium salt] | 4 |  | 165 | 
5 | O=C(Cc1cccnc1)N1CC[C@@H]2[C@H]1C(=O)N2S(=O)(=O)[O-].[Na+] [6(i), (1S,5R)-7-Oxo-2-(3-pyridylacetyl)-2,6-diazabicyclo[3.2.0]-heptane-6-sulphonic acid sodium salt] | 4 |  | 700 | 
6 | O=C(/C=C/c1ccco1)N1CC[C@@H]2[C@H]1C(=O)N2S(=O)(=O)O [Example 5(a), (1S,5R)-2-[(E)-3-(2-Furyl)acryloyl-7-oxo-2,6-diazabicyclo[3.20]heptane-6-sulphonic acid sodium salt] | 4 |  |  | 7.07
7 | NC(C(=O)N1CC[C@@H]2[C@H]1C(=O)N2S(=O)(=O)O)c1cccs1 (single isomer, unassigned) [5(e), (1S,5R)-2-[(R or S)-α-Amino-(2-thienyl)acetyl]-7-oxo-2,6-diazabicyclo[3.2.0]heptane-6-sulphonic acid] | 2 |  |  | 7.07
8 | COc1ccc(NC(=O)N2CC[C@@H]3[C@H]2C(=O)N3S(=O)(=O)[O-])cc1.[Na+] [17(l), (1S,5R)-2-(4-Methoxyphenylcarbamoyl)-7-oxo-2,6-diazabicyclo[3.2.0]heptane-6-sulphonic acid sodium salt] | 4 |  | 437 | 
9 | O=C(CNc1cc[nH]c(=O)n1)N1CC[C@@H]2[C@H]1C(=O)N2S(=O)(=O)O [23(f), (1S,5R)-7-Oxo-(2-oxo-1,2-dihydro-pyrimidin-4-ylaminoacctyl)-2,6-diazabicyclo[3.2.0]heptane-6-sulfonic acid sodium salt] | 0.5 |  |  | 7.52
10 | O=C1OCCN1NC(=O)N1CC[C@@H]2[C@H]1C(=O)N2S(=O)(=O)[O-].[Na+] [17(ad), (1S,5R)-7-Oxo-2-[2-oxo-oxazolidin-3-ylcarbamoyl]-2,6-diazabicyclo[3.2.0]heptane-6-sulfonic acid sodium salt] | 2 |  | 75 | 
11 | NC(C(=O)N1CC[C@@H]2[C@H]1C(=O)N2S(=O)(=O)[O-])c1ccccc1F.[Na+] (mixture of isomers) [8(c), (1S,5R)-2-[DL-2-(o-Fluorophenyl)glycyl]-7-oxo-2,6-diazabicyclo[3.2.0]heptane-6-sulphonic acid sodium salt] | 2 |  | 120 | 
12 | Cc1nnc(SCC(=O)N2CC[C@@H]3[C@H]2C(=O)N3S(=O)(=O)[O-])s1.[Na+] [5(m), (1S,5R)-2-[[(5-Methyl-1,3,4-thiadiazol-2-yl)thio]acetyl]-7-oxo-2,6-diazabicyclo[3.2.0]heptane-6-sulphonic acid sodium salt] | 0.5 |  | 24 | 
13 | O=C(Nc1ccccc1)N1CC[C@@H]2[C@H]1C(=O)N2S(=O)(=O)[O-].[Na+] [Example 2, (1S,5R)-7-Oxo-2-(phenylcarbamoyl)-2,6-diazabicyclo[3.2.0]heptane-6-sulphonic acid sodium salt] | 2 |  | 220 | 
14 | O=C(NCCc1ccc(O)c(O)c1)N1CC[C@@H]2[C@H]1C(=O)N2S(=O)(=O)[O-].[Na+] [17(k), (1S,5R)-2-[2-(3,4-Dihydroxyphenyl)ethylcarbamoyl]-7-oxo-2,6-diazabicyclo[3.2.0]heptane-6-sulphonic acid sodium salt] | 16 |  | 109 | 
15 | CC(C)=C[C@@H]1[C@@H](C(=O)N2CC[C@@H]3[C@H]2C(=O)N3S(=O)(=O)[O-])C1(C)C.[Na+] [23(h), (1S,5R)-2-[(1R,3R)-2,2-Dimethyl-3-(2-methyl-propenyl)-cyclopropylcarbonyl]7-oxo-2,6-diazabicyclo[3.2.0]heptane-6-sulfonic acid sodium salt] | 16 |  | 920 | 
16 | COc1cc(CNC(=O)N2CC[C@@H]3[C@H]2C(=O)N3S(=O)(=O)[O-])on1.[Na+] [17(aa), (1S,5R)-2-[3-Methoxy-isoxazol-5-ylmethylcarbamoyl]-7-oxo-2,6-diazabicyclo[3.2.0]heptane-6-sulfonic acid sodium salt] | 0.5 |  | 75 | 
17 | O=C(/C=C/c1ccc(O)c(O)c1)N1CC[C@@H]2[C@H]1C(=O)N2S(=O)(=O)O [6(u), (1S,5R)-(E)-2-[3-(3,4Dihydroxy)phenyl)acryloyl)]-7-oxo-2,6-diazabicyclo[3.2.0]heptane-6-sulfonic acid sodium salt] | 2 |  |  | 7.40
18 | CC(C)n1nnc(CC(=O)N2CC[C@@H]3[C@H]2C(=O)N3S(=O)(=O)[O-])n1.[Na+] [5(l), (1S,5R)-2-[(2-Isopropyl-2H-tetrazol-5-yl)-acetyl]-7-oxo-2,6-diazabicyclo[3.2.0]heptane-6-sulphonic acid sodium salt] | 4 |  | 860 | 
19 | Cc1nnc(O)c(CNC(=O)N2CC[C@@H]3[C@H]2C(=O)N3S(=O)(=O)O)c1C [17(f), (1S,5R)-2-(3-Hydroxy-5,6-dimethyl-pyridazin-4-yl-methylcarbamoyl)-7-oxo-2,6-diazabicyclo[3.2.0]heptane-6-sulphonic acid sodium salt] | 2 |  | 193 | 
20 | N[C@@H](C(=O)N1CC[C@@H]2[C@H]1C(=O)N2S(=O)(=O)O)c1ccccc1 [4(b), (1S,5R)-7-Oxo-2-(D-2-phenylglycyl)-6-2,6-diazabicyclo[3.2.0]heptane-6-sulphonic acid] | 2 |  |  | 6.60
21 | O=C(CSc1nnnn1-c1ccccc1)N1CC[C@@H]2[C@H]1C(=O)N2S(=O)(=O)O [5(q), (1S,5R)-7-Oxo-2-[(1-phenyl-tetrazol)-5-ylsulfanyl-acetyl]-2,6-diazabicyclo[3.2.0]heptane-6-sulfonic acid sodium salt] | 2 |  |  | 8.30
22 | CCN(CC)CC.O=C(/C=C/c1c[nH]c2ccccc12)N1CC[C@@H]2[C@H]1C(=O)N2S(=O)(=O)O [6(f), (1S,5R)-2-[(E)-3-(3-Indolyl)acryloyl]-7-oxo-2,6-diazabicyclo[3.2.0]heptane-6-sulphonic acid triethylamine salt (1:1)] | 4 | 11 |  | 
23 | O=C(NNc1ccccc1)N1CC[C@@H]2[C@H]1C(=O)N2S(=O)(=O)O [17(d), (1S,5R)-7-Oxo-2-(2-phenyl-carbazoyl)-2,6-diazabicyclo[3.2.0]heptane-6-sulphonic acid sodium salt] | 2 |  | 197 | 
24 | NC(C(=O)N1CC[C@@H]2[C@H]1C(=O)N2S(=O)(=O)O)c1ccc(O)cc1 (mixture of isomers) [6(s), (1S,5R)-2-[R,S-Amino-(4-hydroxyphenyl)-acetyl]-7-oxo-2,6-diazabicyclo[3.2.0]heptane-6-sulphonic acid sodium salt] | 4 |  |  | 6.23
25 | Nc1nc(CNC(=O)N2CC[C@@H]3[C@H]2C(=O)N3S(=O)(=O)[O-])cs1.[Na+] [17(ae), (1S,5R)-2-[2-Amino-thiazol-4-ylmethylcarbamoyl]-7-oxo-2,6-diazabicyclo[3.2.0]heptane-6-sulfonic acid sodium salt] | 1 |  | 200 | 
26 | O=C(C=Cc1cncn1S(=O)(=O)[O-])N1CC[C@@H]2[C@H]1C(=O)N2S(=O)(=O)[O-].[Na+].[Na+] [23(l), (1S,5R)-7-Oxo-2-[3-(1-sulfo-imidazol-5-yl)acryloyl]-2,6-diazabicyclo[3.2.0]heptane-6-sulfonic acid sodium salt] | 2 |  | 5 | 
27 | O=C(CSc1nc[nH]n1)N1CC[C@@H]2[C@H]1C(=O)N2S(=O)(=O)O [12(b), (1S,5R)-7-Oxo-2-(1,2,4-triazol-3-yl-thioacetyl)-2,6-diazabicyclo[3.2.0]heptan-6-sulphonic acid] | 2 | 115 |  | 
28 | N[C@@H](C(=O)N1CC[C@@H]2[C@H]1C(=O)N2S(=O)(=O)O)c1cccc(O)c1 [6(p), (1S,5R)-2-[R-2-(m-Hydroxyphenyl)glycyl]-7-oxo-2,6-diazabicyclo[3.2.0]heptane-6-sulphonic acid] | 2 |  |  | 7.25
